According to patent US12122811B2, “BDNF mimetic peptide amphiphiles” (Northwestern University, priority 2018, dated 2024):
Positions of bridges follow the written chain, without caps; N, C: chain ends. Non-standard residues stand in square brackets, D forms with d. Residues, ends and D or L forms follow the SMILES beside them. Chains are numbered I, II in the order given. *: point of attachment. PEG6 = NCCOCCOCCOCCOCCOCCOCCC(=O)O; Palmitoyl = CCCCCCCCCCCCCCCC(=O)*

How the values were obtained:
TrkB receptor = biological target: T1, TrkB receptor (Mus musculus, UniProt P15209); experiment: TrkB receptor phosphorylation (p-TrkB) by western blot in primary cortical neurons; format: cell-based; conditions: for TrkB phosphorylation after pre-treatment with inhibitor K252a: K252a 2 h prior to treatment, 6 h post-treatment
T1 construct: Protein was extracted from primary neuronal cultures; endogenous in cells; host or cells: primary cortical neurons from E16 CD1 mouse embryos, 14 DIV
T1 sequence (P15209 32-821): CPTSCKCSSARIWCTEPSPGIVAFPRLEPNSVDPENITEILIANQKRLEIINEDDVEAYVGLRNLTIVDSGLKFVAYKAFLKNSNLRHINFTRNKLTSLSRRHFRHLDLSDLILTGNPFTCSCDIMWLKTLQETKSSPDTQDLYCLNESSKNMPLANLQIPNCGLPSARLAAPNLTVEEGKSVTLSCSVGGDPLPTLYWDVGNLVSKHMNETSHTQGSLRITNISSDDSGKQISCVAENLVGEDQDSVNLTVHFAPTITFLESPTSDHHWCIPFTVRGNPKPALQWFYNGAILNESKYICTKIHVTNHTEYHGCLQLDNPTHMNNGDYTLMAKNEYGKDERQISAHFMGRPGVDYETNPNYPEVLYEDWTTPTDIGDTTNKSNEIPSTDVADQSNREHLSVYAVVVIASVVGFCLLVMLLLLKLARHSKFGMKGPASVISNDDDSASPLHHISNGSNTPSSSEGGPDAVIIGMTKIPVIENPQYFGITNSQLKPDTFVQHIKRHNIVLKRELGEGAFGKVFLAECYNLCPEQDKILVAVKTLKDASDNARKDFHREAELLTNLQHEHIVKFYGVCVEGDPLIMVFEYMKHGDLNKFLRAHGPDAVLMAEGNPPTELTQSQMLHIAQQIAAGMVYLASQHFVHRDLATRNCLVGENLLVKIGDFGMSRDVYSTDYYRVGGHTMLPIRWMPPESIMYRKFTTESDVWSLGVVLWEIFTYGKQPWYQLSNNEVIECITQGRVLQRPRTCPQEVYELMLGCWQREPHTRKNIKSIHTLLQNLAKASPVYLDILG
Protocol: 2.3.2. Dissection of Embryonic Primary Cortical Neurons. Neurons were obtained from embryonic brains as described elsewhere.^2 Briefly, time-pregnant mouse was sacrificed by cervical dislocation and the embryos were extracted at embryonic day 16 (E16). Cerebral cortices were dissected from the mouse embryos and meninges were removed in a solution of Hank's Balanced Salt Solution (HBSS) with 1% pen-strep (Invitrogen) and then digested with trypsin (Invitrogen) and DNAse (Sigma-Aldrich) for 10 min at 37° C. The tissue was mechanically dissociated, centrifuged at 1000 g for 5 min, and resuspended in CO2-equilibrated Neurobasal (NB) neuronal culture medium (Invitrogen) supplemented with 10% normal horse serum (NHS) (Invitrogen), 1% pen-strep (Invitrogen), 0.5 mM L-glutamine (Invitrogen), and 5.8 μL NaHCO3/mL (Sigma-Aldrich). The cell suspension was pre-plated at 37° C. for 30 min. Afterwards, the supernatant was collected, passed through a cell strainer with 100 μm pore size and centrifuged at 1000 g for 5 min. The pellet was resuspended in NB neuronal culture medium (1% NHS, 1% pen-strep, 0.5 mM L-glutamine, 22 μM glutamic acid (Sigma-Aldrich), 2% B27 (Gibco), and 5.8 μL NaHCO3/mL (Sigma-Aldrich), and plated at different densities (depending on the type of experiment, see below) directly on tissue culture plates coated with poly-D-lysine (Sigma-Aldrich). After 24 hs, the medium was replaced with serum-free neuronal culture medium (1% pen-strep, 0.5 mM L-glutamine, 2% B27, 5.8 μL NaHCO3/mL). Under these conditions, we obtained a neuron-enriched culture with a composition of approximately 10% glial cells.
BDNF PA Treatments and Cell Culture Procedures. Treatments were prepared by dissolving PA (including E2 Filler, E2 Filler+E4PEG, E2 Filler+Linear BDNF, E2 Filler+BDNF PAs) and BDNF peptide at different concentrations (0.5, 1.0 or 5.0 μM), in media without serum or B27 supplement or starvation media. Unless otherwise noted, BDNF PA, Linear BDNF PA, or E4PEG PAs were co-assembled at 10 mol % with E2 filler PA (total concentration of PA was 5.0, 10.0, or 50.0 μM respectively). For the co-assembly ratio study, BDNF PA was co-assembled at 10, 20, 50, 70, 90, and 100 mol %. Human/Murine/Rat BDNF protein (Peprotech) was resuspended at different concentrations (0.25, 0.5 and 1 nM) in starvation media.
For western blot, cells were cultured in 6 well plates at a density of approximately 900,000 cells/well for 14 DIV before being treated. Treatments were added for 2, 4, 6, 8, 12 or 24 h in vitro before protein was harvested. […] Protein was extracted after six hours of treatment.
Western Blot. Protein was extracted from primary neuronal cultures with Halt Protease and Phosphatase Inhibitor Cocktail (Thermo Scientific) and a BCA assay (Thermo Scientific) was performed to determine protein content of each sample. Cell protein was loaded into and separated using a 4-20% SDS-PAGE gel (Bio-Rad). It was then electrotransferred from the gel to a nitrocellulose membrane (Bio-Rad). The membranes were blocked with 5% milk solution (Bio-Rad) for 30 minutes followed by an overnight incubation with primary antibodies at 4° C. The following primary antibodies were used: rabbit anti-pTrkB (1:1000, Cell Signaling), rabbit anti-TrkB (1:1000, Cell Signaling), rabbit anti-Actin (1:2000, Sigma Aldrich), mouse anti-Actin (1:2000, Sigma Aldrich), rabbit anti-pPLCγ (1:1000, Cell Signaling), rabbit anti-PLCγ (1:1000, Cell Signaling), rabbit anti-pAKT (1:2000, Cell Signaling), mouse anti-AKT (1:2000, Cell Signaling), rabbit anti-pERK1+ERK2 (1:1000, Abcam), rabbit anti-ERK 1/2 (1:1000, Cell Signaling), rabbit anti-PSD95 (1:1000, Abcam), rabbit anti-MAP-2 (1:2000, BioLegend), and mouse anti-Tuj-1 (1:1000, BioLegend). Membranes were then incubated with their corresponding secondary HRP-conjugated antibodies (1:1000; ThermoFisher). Protein signals were detected using Radiance Bioluminescent ECL substrate (Azure Biosystems). […]

[1] = system: primary mouse cortical neurons; experiment: Multi-electrode array (MEA) electrophysiology of neuronal cultures; format: cell-based; conditions: for spontaneous firing frequency: 30 days in vitro, relative to control condition; for network burst duration / spikes per network burst: over time, vs control media
Protocol: Electrophysiology—Multi Electrode Array (MEA) Plates. For 2D electrophysiology studies, 12 well MEA plates with 64 electrodes per well were coated with PEI and laminin according to Axion Biosystems protocols.^5 Embryonic primary neurons were seeded at a density of 60,000 cells/well and cultured during 14 DIV. On day 14, cells were treated with BDNF protein, BDNF PA, BDNF Peptide, or starvation media. Every 5 days, half of the media was removed from each well and replaced with fresh media containing additional treatment. Spontaneous network and synchronized activity was recorded using Axion Biosystems Maestro 768 channel amplifier and Axion Integrated Studios (AxIS) v2.4 software. The amplifier recorded from all channels simultaneously using a gain of 1200× and a sampling rate of 12.5 kHz/channel. After passing the signal through a Butterworth band-pass filter (300-5000 Hz) on-line spike detection (threshold=6× the root-mean-square of noise on each channel) was done with the AxIS adaptive spike detector. All recordings were conducted at 37° C. with appropriate 5% CO2/95% O2. Spontaneous network activity was recorded for 5 min each day starting at 10 DIV. Active electrodes were defined as having >5 spikes/min and only wells with over 10 active electrodes during the baseline-recording period were used in the analysis. Synchronized activity was defined as spike and burst activity that occurred on 25% of the electrodes or more in a well within 100 ms of each other. […] All data reflects well-wide averages, where the reported value of n represents the number of wells per condition.

CCCCCCCCCCCCCCCC(=O)N[C@H](C(=O)N[C@H](C(=O)N[C@@H](C)C(=O)N[C@@H](C)C(=O)N[C@@H](CCC(=O)O)C(=O)N[C@@H](CCC(=O)O)C(=O)N[C@@H](CCC(=O)O)C(=O)N[C@@H](CCC(=O)O)C(=O)NCCOCCOCCOCCOCCOCCOCCC(=O)NCCCC[C@@H]1NC(=O)[C@H]2CCCN2C(=O)[C@H](CCCNC(=N)N)NC(=O)[C@H](CCCCN)NC(=O)[C@H](CCCCN)NC1=O)C(C)C)C(C)C [BDNF PA, RKK(aK)(dP)-(PEG6 Spacer)-EEEEAAVV-C16 (SEQ ID NO: 5)] (I: Palmitoyl-VVAAEEEE[PEG6] / II: cyclo(KKKR[dP]); amide I:C-II:1)
dose dependence of TrkB activation (TrkB receptor; 0.5, 1.0 and 5.0 μM, 6 h): no dose-dependent activation of TrkB
activation of TrkB receptor, co-assembly ratio study (TrkB receptor; 10-50 mol % BDNF PA co-assembled with E2 Filler PA, 6 h): increase in activation of TrkB receptor in comparison with the control conditions
activation of TrkB receptor, co-assembly ratio study (TrkB receptor; 90-100 mol % BDNF PA (do not form fibers), 6 h): unable to activate the receptor to the same degree
TrkB phosphorylation after pre-treatment with inhibitor K252a (TrkB receptor): completely blocked
spontaneous firing frequency [1]: increased spontaneous firing frequency relative to the control condition
network burst duration [1]: longer network bursts
spikes per network burst [1]: significantly more spikes per network burst

B1: BDNF protein: Human/Murine/Rat BDNF protein (Peprotech) (protein, UniProt P23560 19-247, looked up)
Neurotrophic factor BDNF …: APMKEANIRGQGGLAYPGVRTHGTLESVNGPKAGSRGLTSLADTFEHVIEELLDEDQKVRPNEENNKDADLYTSRVMLSSQVPLEPPLLFLLEEYKNYLDAANMSMRVRRHSDPARRGELSVCDSISEWVTAADKKTAVDMSGGTVTVLEKVPVSKGQLKQYFYETKCNPMGYTKEGCRGIDKRHWNSQCRTTQSYVRALTMDSKKRIGWRFIRIDTSCVCTLTIKRGR
persistence of p-TrkB (TrkB receptor; BDNF protein 0.25 nM, time course to 24 h): no longer showing p-TrkB after 12 h
TrkB phosphorylation after pre-treatment with inhibitor K252a (TrkB receptor): completely blocked
spontaneous firing frequency [1]: increased spontaneous firing frequency relative to the control condition
network burst duration [1]: longer network bursts
spikes per network burst [1]: significantly more spikes per network burst
